Our source for the IC50 values is US12371428B2 (Exelixis, Inc., priority 2019, dated 2025).

In assay [1] the target is Human MER (residues 528-999) (Homo sapiens (Human), UniProt Q12866). As to the kind of experiment: Human Mer kinase assay, HTRF KinEase (Example C-2). The assay is classed as biochemical. The method, then:
(§1) Kinase activity and compound inhibition were also investigated using the HTRF® KinEase assay (Cisbio Cat #62TKOPEB) per manufacturer's instructions. In short, compounds were delivered in 300 nL volumes at 10 different concentrations in DMSO (3% final) to empty 384-well assay plates (Corning cat #3824). A mixture of enzyme, […] biotynlated peptide substrate, and buffer in 10 μL volume was added. The assay was started upon the addition of ATP (at Km). The 10 μL reaction was incubated at room temperature. The reaction was stopped upon the addition of detection buffer containing streptavidin-XL665 ([…]) and TK antibody-Eu3+([…]). After a 60 min incubation at room temperature, the fluorescence at 665 nm and 620 nm was read on an Envision microplate reader (Perkin Elmer).
(§2) Kinase activity normalized to DMSO (100% activity) and reference compound at […] and (0% activity) was calculated using the fluorescence ratio […]. IC50 values were calculated by nonlinear regression analysis using a 4-parameter logistic curve fit in ActivityBase XE (IDBS).
Example C-2: Human MER (residues 528-999; CarnaBio, 1 ng/well) was also incubated with enzymatic buffer (Cisbio) supplemented with 5 mM MgCl2 and 1 mM DTT. The mixture was added to the pre-plated compounds. The reaction was initiated upon addition of ATP at Km (40 μM). The reaction was incubated at room temperature for 60 min and stopped upon the addition of SA-XL665 and TK-antibody both diluted in EDTA-containing kinase detection buffer (Cisbio). The kinase activity was calculated as stated above and the IC50 values were reported.

The target in assay [2] is Human KDR (residues 790-1356) (Homo sapiens (Human), UniProt P35968). Description: Human KDR kinase assay, HTRF KinEase (Example B-2). The format is biochemical. The method, then: as §1, §2
Sequence of Human KDR (residues 790-1356) (P35968 790-1356): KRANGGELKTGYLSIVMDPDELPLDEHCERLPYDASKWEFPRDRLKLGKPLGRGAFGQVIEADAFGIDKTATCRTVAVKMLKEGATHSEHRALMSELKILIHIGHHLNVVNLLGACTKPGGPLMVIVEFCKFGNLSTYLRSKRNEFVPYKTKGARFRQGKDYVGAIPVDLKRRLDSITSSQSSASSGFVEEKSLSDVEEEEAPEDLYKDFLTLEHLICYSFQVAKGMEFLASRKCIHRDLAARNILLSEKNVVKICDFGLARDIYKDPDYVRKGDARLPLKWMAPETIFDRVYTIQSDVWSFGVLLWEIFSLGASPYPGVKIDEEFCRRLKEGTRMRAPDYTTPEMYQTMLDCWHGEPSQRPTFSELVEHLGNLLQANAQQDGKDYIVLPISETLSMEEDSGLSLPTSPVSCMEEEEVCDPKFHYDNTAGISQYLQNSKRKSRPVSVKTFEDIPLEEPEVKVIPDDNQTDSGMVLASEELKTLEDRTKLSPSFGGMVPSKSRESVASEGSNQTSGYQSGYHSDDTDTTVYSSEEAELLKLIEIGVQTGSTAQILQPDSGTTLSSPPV
Example B-2: Human KDR (residues 790-1356; CarnaBio, 0.1 ng/well) was also incubated with enzymatic buffer (Cisbio) supplemented with 5 mM MgCl2, 1 mM MnCl2, and 1 mM DTT. The mixture was added to the pre-plated compounds. The reaction was initiated upon addition of ATP at Km (4.0 μM). The reaction was incubated at room temperature for 40 min and stopped upon the addition of SA-XL665 and TK-antibody both diluted in EDTA-containing kinase detection buffer (Cisbio). The kinase activity was calculated as stated above and the IC50 values were reported.
(In general: In TR-FRET formats the signal depends on donor and acceptor labels being close together.)

In assay [3] the target is Human MET (residues 956-1390) (Homo sapiens (Human), UniProt P08581). Description: Human Met kinase assay, HTRF KinEase (Example D-2). The assay is classed as biochemical. The conditions noted are these: read-out: c-Met IC50. The method in brief:
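HTRF KinEase assay on MET residues 956-1390 (0.1 ng/well) in buffer with 5 mM MgCl2, 1 mM DTT and 1 mM MnCl2, with biotinylated peptide substrate, ATP at Km, 10 compound concentrations and 3% DMSO final, run 40 min at room temperature. The […] signal was normalized to DMSO and to 1 μM reference compound, and IC50 came from a 4-parameter logistic fit.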

The target of assay [4] is Met (phospho-Met, HGF-stimulated PC-3 prostate cancer cells) (Homo sapiens (Human), UniProt P08581). Description: Met autophosphorylation ELISA in PC-3 cells (Example F). The assay is classed as cell-based. To be noted: cellular activity; Met autophosphorylation ELISA in PC-3 cells; read-out: c-Met IC50. An outline of the steps:
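PC-3 cells, serum-starved 3 h, were treated with compounds (8-point dose curve, 0.3% DMSO final) for 1 h, then stimulated with 100 ng/mL recombinant human HGF for 10 min. Lysate phospho-Met (panTyr) was quantified by sandwich ELISA; IC50 from 4-parameter logistic fit.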
For orientation: ELISA stands for enzyme-linked immunosorbent assay.

Assay [5] concerns the target Mer (phospho-Mer, MERTK-transfected 293A cells) (Homo sapiens (Human), UniProt Q12866). Description: Mer autophosphorylation ELISA in transient transfected 293A cells (Example H). The assay is classed as cell-based. To be noted: cellular activity; Mer autophosphorylation ELISA in transient transfected 293A cells. The method in brief: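 Human MERTK transiently transfected into 293A cells; compounds as 8-point dose curve in serum-free medium (0.3% DMSO final), 1 h. Lysates assayed by phospho-Mer sandwich ELISA against phospho-Mer standard; DMSO = 100%, reference inhibitor = 0% activity; IC50 from 4-parameter logistic fit.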

In assay [6] the target is KDR (phospho-KDR, VEGF165-stimulated HUVEC cells) (Homo sapiens (Human), UniProt P35968). As to the kind of experiment: KDR autophosphorylation ELISA in HUVEC cells (Example G). The assay is classed as cell-based. To be noted: cellular activity; KDR autophosphorylation ELISA in HUVEC cells. The method in brief: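 Cells seeded, grown 24 h at 37 °C, starved 24 h serum-free; cpd 8-pt curve, 0.3% DMSO, 1 h; VEGF165 100 ng/mL, 5 min; cold PBS wash, lysis with orthovanadate and protease/phosphatase inhibitors; pKDR ELISA; IC50 by 4-parameter logistic regression.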
Sequence of KDR (phospho-KDR, VEGF165-stimulated HUVEC cells) (P35968 20-1356): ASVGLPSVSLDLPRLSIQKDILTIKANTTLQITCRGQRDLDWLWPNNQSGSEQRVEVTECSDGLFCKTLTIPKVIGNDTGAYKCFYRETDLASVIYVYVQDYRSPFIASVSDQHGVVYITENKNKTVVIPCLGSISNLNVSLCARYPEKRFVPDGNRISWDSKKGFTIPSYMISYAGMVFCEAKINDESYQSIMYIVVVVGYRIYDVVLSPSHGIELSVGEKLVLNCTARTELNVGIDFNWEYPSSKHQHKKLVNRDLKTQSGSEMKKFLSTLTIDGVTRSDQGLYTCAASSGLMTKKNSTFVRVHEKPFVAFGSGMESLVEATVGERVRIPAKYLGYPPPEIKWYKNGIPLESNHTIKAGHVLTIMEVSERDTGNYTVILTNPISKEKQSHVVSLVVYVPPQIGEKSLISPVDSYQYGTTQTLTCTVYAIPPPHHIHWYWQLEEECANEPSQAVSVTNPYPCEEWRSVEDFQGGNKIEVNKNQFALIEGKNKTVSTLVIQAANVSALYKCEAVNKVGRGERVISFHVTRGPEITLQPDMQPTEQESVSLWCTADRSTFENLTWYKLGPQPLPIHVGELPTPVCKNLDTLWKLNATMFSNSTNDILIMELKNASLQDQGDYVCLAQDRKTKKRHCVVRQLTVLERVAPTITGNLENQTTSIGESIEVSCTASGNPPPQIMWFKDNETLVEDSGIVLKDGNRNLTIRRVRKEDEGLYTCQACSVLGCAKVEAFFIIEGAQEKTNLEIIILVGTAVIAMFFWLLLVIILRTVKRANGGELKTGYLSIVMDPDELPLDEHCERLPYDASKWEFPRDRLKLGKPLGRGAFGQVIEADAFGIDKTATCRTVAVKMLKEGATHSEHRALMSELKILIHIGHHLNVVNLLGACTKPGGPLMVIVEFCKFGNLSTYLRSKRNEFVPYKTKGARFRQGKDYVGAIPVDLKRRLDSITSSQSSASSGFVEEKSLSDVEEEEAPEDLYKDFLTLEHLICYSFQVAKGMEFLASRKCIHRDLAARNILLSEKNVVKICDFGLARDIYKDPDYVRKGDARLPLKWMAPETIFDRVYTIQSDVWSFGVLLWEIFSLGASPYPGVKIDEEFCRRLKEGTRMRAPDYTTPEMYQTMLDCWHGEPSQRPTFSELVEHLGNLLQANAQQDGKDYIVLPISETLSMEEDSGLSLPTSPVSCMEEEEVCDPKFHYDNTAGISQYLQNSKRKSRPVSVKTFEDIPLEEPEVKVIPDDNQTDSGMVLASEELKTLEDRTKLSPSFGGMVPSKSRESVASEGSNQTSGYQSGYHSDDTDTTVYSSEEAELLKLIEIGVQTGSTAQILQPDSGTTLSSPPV

Setting [7] is: protocol of Example C-2 (other compounds).
The mark [8] stands for this setting: protocol of Example B-2 (other compounds).
Setting [9] is: protocol of Example D-2 (other compounds).

Structures are written as SMILES. Read-outs that look alike come from different tables or passages of the source. Where only a bound is given, the exact number is not on record here.

Sequence of Human MER (residues 528-999) (Q12866 528-999): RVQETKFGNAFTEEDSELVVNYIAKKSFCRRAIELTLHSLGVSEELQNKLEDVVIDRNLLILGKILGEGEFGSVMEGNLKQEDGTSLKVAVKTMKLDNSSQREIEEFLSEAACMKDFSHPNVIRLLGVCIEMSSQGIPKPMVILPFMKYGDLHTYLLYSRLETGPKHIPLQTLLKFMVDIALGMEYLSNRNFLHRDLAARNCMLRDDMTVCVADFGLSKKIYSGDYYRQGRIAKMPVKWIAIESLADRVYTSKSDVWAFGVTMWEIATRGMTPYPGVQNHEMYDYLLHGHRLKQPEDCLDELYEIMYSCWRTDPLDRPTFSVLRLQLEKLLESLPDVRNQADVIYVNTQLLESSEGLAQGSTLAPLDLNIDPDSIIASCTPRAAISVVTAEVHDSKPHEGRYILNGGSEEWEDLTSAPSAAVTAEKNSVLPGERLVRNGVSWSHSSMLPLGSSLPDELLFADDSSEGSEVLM
Sequence of Met (phospho-Met, HGF-stimulated PC-3 prostate cancer cells) (P08581 25-1390): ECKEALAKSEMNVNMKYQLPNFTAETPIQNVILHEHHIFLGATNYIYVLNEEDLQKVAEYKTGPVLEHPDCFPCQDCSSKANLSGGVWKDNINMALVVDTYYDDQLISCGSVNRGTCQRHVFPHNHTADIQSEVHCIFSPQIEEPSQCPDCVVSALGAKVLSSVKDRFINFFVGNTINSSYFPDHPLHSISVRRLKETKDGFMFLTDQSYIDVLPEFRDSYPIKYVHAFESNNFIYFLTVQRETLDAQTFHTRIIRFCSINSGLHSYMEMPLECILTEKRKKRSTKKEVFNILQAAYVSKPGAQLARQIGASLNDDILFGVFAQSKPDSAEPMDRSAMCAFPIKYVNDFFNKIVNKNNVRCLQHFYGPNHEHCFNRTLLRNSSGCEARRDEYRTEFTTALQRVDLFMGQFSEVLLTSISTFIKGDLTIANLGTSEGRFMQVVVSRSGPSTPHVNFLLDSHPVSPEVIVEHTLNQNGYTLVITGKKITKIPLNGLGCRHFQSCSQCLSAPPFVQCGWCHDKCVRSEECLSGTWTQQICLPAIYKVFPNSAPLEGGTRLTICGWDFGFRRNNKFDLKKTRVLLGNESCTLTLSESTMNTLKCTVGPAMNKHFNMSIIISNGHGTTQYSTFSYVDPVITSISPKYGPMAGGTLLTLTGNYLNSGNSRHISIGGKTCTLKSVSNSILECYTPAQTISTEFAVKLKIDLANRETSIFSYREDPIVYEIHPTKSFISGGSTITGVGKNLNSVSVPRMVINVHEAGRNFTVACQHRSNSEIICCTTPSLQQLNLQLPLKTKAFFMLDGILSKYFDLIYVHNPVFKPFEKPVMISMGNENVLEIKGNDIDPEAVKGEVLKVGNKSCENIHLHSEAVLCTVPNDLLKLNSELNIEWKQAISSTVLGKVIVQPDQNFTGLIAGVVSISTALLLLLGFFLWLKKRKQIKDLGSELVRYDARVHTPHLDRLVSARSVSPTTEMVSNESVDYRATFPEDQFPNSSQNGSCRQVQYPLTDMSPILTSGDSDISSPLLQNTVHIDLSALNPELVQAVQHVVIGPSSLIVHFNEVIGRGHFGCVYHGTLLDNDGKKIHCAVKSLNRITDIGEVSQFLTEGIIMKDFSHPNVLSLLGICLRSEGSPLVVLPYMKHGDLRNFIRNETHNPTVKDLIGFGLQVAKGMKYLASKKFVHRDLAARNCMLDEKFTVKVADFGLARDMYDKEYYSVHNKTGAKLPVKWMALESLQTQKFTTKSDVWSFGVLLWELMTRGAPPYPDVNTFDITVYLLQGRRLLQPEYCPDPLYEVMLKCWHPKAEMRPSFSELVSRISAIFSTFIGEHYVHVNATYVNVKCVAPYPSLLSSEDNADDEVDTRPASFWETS
Sequence of Human MET (residues 956-1390) (P08581 956-1390): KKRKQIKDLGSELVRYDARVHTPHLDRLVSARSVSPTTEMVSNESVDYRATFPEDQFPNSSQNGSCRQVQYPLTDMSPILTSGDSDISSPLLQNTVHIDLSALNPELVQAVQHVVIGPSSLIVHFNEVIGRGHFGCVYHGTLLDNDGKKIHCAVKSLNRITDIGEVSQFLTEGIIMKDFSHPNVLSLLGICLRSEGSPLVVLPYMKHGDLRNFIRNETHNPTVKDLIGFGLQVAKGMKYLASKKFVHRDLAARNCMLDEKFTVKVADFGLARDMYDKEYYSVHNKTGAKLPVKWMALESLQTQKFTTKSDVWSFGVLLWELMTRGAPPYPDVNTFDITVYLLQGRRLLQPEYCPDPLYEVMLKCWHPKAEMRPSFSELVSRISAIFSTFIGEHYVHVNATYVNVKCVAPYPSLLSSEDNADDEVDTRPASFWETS

The IC50 is the midpoint of a concentration-inhibition curve. On to `COc1nc2c(Oc3ccc(NC(=O)c4cnc(C)c(-c5ccc(F)cc5)c4O)cc3F)ccnc2cc1C(C)C` [Compound 590, N-[3-Fluoro-4-[(6-methoxy-7-propan-2-yl-1,5-naphthyridin-4-yl)oxy]phenyl]-5-(4-fluorophenyl)-4-hydroxy-6-methylpyridine-3-carboxamide], for which the IC50 in assay [1] (protocol of Example C-2) is below 100 nM; in assay [2] (protocol of Example B-2), above 300 nM; in assay [3] (protocol of Example D-2), above 300 nM.
Consider `COc1cc2nccc(Oc3ccc(NC(=O)C4=C5CCCN5CC(c5ccc(F)cc5)C4=O)cc3F)c2nc1OC` (single isomer, unassigned; enantiomer 2) [Compound 375, N-[4-[(6,7-dimethoxy-1,5-naphthyridin-4-yl)oxy]-3-fluorophenyl]-6-(4-fluorophenyl)-7-oxo-2,3,5,6-tetrahydro-1H-indolizine-8-carboxamide, enantiomer 2], for which the IC50 is below 100 nM in assay [1] (setting [7]), above 300 nM in assay [2] (setting [8]) and below 100 nM in assay [3] (setting [9]).
Consider `CC(C)n1cc(C(=O)Nc2ccc(Oc3ccnc4cc(F)cnc34)c(F)c2)c(=O)c(-c2ccc(F)cc2)c1` [Compound 161, N-[3-Fluoro-4-[(7-fluoro-1,5-naphthyridin-4-yl)oxy]phenyl]-5-(4-fluorophenyl)-4-oxo-1-propan-2-ylpyridine-3-carboxamide], for which the IC50 in assay [1] (setting [7]), in assay [2] (setting [8]) and in assay [3] (setting [9]) was below 100 nM in each case.
Regarding `COc1cc2nccc(Oc3ccc(NC(=O)c4cn(C(C)C)c(C)c(-c5ccc(F)cc5)c4=O)cc3F)c2nc1N(C)C` [Compound 583, N-[4-[[6-(Dimethylamino)-7-methoxy-1,5-naphthyridin-4-yl]oxy]-3-fluorophenyl]-5-(4-fluorophenyl)-6-methyl-4-oxo-1-propan-2-ylpyridine-3-carboxamide], the IC50 is below 100 nM in assay [1] (protocol of Example C-2), above 300 nM in assay [2] (protocol of Example B-2) and below 100 nM in assay [3] (protocol of Example D-2).
Regarding `COc1ccc2nccc(Oc3ccc(NC(=O)c4c[nH]c(=O)n(-c5ccc(F)cc5)c4=O)cc3F)c2n1` [Compound 103, N-[3-Fluoro-4-[(6-methoxy-1,5-naphthyridin-4-yl)oxy]phenyl]-3-(4-fluorophenyl)-2,4-dioxo-1H-pyrimidine-5-carboxamide], the IC50 in assay [1] (setting [7]) was below 100 nM; in assay [2] (setting [8]) it was above 300 nM; in assay [3] (setting [9]) it was below 100 nM.
As for `COc1cc2nccc(Oc3ccc(NC(=O)c4c(C)c(Cl)c(C)n(-c5ccc(F)cc5)c4=O)cc3)c2nc1OC` [Compound 307, 5-Chloro-N-[4-[(6,7-dimethoxy-1,5-naphthyridin-4-yl)oxy]phenyl]-1-(4-fluorophenyl)-4,6-dimethyl-2-oxopyridine-3-carboxamide], the IC50 in assay [1] (setting [7]) is below 100 nM; in assay [2] (setting [8]) it was above 300 nM; in assay [4] it was below 100 nM; in assay [5], below 100 nM; in assay [6] it was above 300 nM.
As for `COc1cnc2c(Oc3ccc(NC(=O)c4nnc(C)c(-c5ccc(F)cc5)c4OC(C)C)cc3F)ccnc2c1` [Compound 567, N-[3-Fluoro-4-[(7-methoxy-1,5-naphthyridin-4-yl)oxy]phenyl]-5-(4-fluorophenyl)-6-methyl-4-propan-2-yloxypyridazine-3-carboxamide], the IC50 in assay [1] (protocol of Example C-2), in assay [2] (protocol of Example B-2), in assay [4], in assay [5] and in assay [6] was below 100 nM in each case.
As to `CCOc1c(C(=O)Nc2ccc(Oc3ccnc4cc(OC)c(OC)nc34)c(F)c2)nnc(C)c1-c1ccc(F)cc1` [Compound 569, N-[4-[(6,7-Dimethoxy-1,5-naphthyridin-4-yl)oxy]-3-fluorophenyl]-4-ethoxy-5-(4-fluorophenyl)-6-methylpyridazine-3-carboxamide], the IC50 in assay [1] (protocol of Example C-2), in assay [2] (protocol of Example B-2), in assay [4], in assay [5] and in assay [6] was below 100 nM each time.
In the case of `CNC(=O)c1c(-c2ccc(F)cc2)c(=O)c(C(=O)Nc2ccc(Oc3ccnc4cc(OC)c(OC)nc34)c(F)c2)cn1C` [Compound 563, 5-N-[4-[(6,7-Dimethoxy-1,5-naphthyridin-4-yl)oxy]-3-fluorophenyl]-3-(4-fluorophenyl)-2-N,1-dimethyl-4-oxopyridine-2,5-dicarboxamide], the IC50 in assay [1] (protocol of Example C-2) was below 100 nM; in assay [2] (protocol of Example B-2), above 300 nM; in assay [4], below 100 nM; in assay [5] it was below 100 nM; in assay [6], above 300 nM.
Regarding `CCOc1c(C)cn(-c2ccc(F)cc2)c(=O)c1C(=O)Nc1ccc(Oc2ccnc3cc(OC)c(OC)nc23)c(F)c1` [Compound 371, N-[4-[(6,7-dimethoxy-1,5-naphthyridin-4-yl)oxy]-3-fluorophenyl]-4-ethoxy-1-(4-fluorophenyl)-5-methyl-2-oxopyridine-3-carboxamide], the IC50 in assay [1] (setting [7]), in assay [2] (setting [8]), in assay [4], in assay [5] and in assay [6] was below 100 nM throughout.
With `COc1cnc2c(Oc3ccc(NC(=O)c4nn(C(C)C)c(C)c(-c5ccc(F)cc5)c4=O)cc3F)ccnc2c1` [Compound 566, N-[3-Fluoro-4-[(7-methoxy-1,5-naphthyridin-4-yl)oxy]phenyl]-5-(4-fluorophenyl)-6-methyl-4-oxo-1-propan-2-ylpyridazine-3-carboxamide], the IC50 in assay [1] (protocol of Example C-2) is below 100 nM; in assay [2] (protocol of Example B-2) it was above 300 nM; in assay [4], below 100 nM; in assay [5] it was below 100 nM; in assay [6], above 300 nM.
On to `O=C(Nc1ccc(Oc2ccnc3cccnc23)c(F)c1)c1cccn(-c2ccc(F)cc2)c1=O` [Compound 304, N-[3-Fluoro-4-(1,5-naphthyridin-4-yloxy)phenyl]-1-(4-fluorophenyl)-2-oxopyridine-3-carboxamide], for which the 50% inhibitory concentration (IC50) was below 100 nM in assay [1] (setting [7]); above 300 nM in assay [2] (setting [8]); below 100 nM in assay [4]; below 100 nM in assay [5]; 100 to 300 nM in assay [6].
As to `Cc1ccn(-c2ccc(F)cc2)c(=O)c1C(=O)Nc1ccc(Oc2ccnc3cccnc23)c(F)c1` [Compound 303, N-[3-Fluoro-4-(1,5-naphthyridin-4-yloxy)phenyl]-1-(4-fluorophenyl)-4-methyl-2-oxopyridine-3-carboxamide], the IC50 in assay [1] (setting [7]) is 100 to 300 nM; in assay [2] (setting [8]) it was above 300 nM; in assay [4], below 100 nM; in assay [5], below 100 nM; in assay [6], above 300 nM.
Regarding `COc1cc2nccc(Oc3ccc(NC(=O)c4c(C)c(Cl)c(C)n(-c5ccc(F)cc5)c4=O)cc3F)c2nc1OC` [Compound 308, 5-Chloro-N-[4-[(6,7-dimethoxy-1,5-naphthyridin-4-yl)oxy]-3-fluorophenyl]-1-(4-fluorophenyl)-4,6-dimethyl-2-oxopyridine-3-carboxamide], the IC50 in assay [1] (setting [7]) is below 100 nM; in assay [2] (setting [8]) it was above 300 nM; in assay [4] it was below 100 nM; in assay [5] it was below 100 nM; in assay [6], below 100 nM.
